Tests used:
lambsquarters [1] = test: Test C pre-/postemergence herbicide test; assay type: in vivo, Chenopodium album; details: for Plant response rating (0 = no effect, 100 = complete control), Lambsquarters / Plant response rating, Lambsquarters: preemergence
Outline: (§1)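 Pre- and postemergence application, solvent/surfactant formulation; post at 1- to 4-leaf stage (2–18 cm). Greenhouse 12–14 d. Visual rating vs controls, 0 = no effect, 100 = complete control.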

cocklebur = test: Test B pre-/postemergence herbicide test; assay type: in vivo, Xanthium strumarium
Outline: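 Plants compared with untreated controls 13–15 days post-treatment and given a visual 0–100 injury score. Applications: preemergence to seeds; postemergence at 1- to 4-leaf (2–18 cm); paddy species flooded, 2-leaf stage. Vehicle non-phytotoxic, surfactant included.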

woolly cupgrass = test: Test C pre-/postemergence herbicide test; assay type: in vivo, Eriochloa villosa; details: for Plant response rating (0 = no effect, 100 = complete control), Cupgrass, Woolly / Plant response rating, Cupgrass, Woolly: preemergence
Outline: as §1

Surinam grass = test: Test C pre-/postemergence herbicide test; assay type: in vivo, Urochloa decumbens; details: for Plant response rating (0 = no effect, 100 = complete control), Surinam Grass / Plant response rating, Surinam Grass: preemergence
Outline: as §1

johnsongrass = test: Test C pre-/postemergence herbicide test; assay type: in vivo, Sorghum halepense; details: for Plant response rating (0 = no effect, 100 = complete control), Johnsongrass / Plant response rating, Johnsongrass: preemergence
Outline: as §1

lambsquarters [2] = test: Test B pre-/postemergence herbicide test; assay type: in vivo, Chenopodium album
Outline: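 Seeds were planted and treated preemergence with compounds formulated in a non-phytotoxic solvent mixture containing surfactant, while plants at the 1- to 4-leaf stage (2 to 18 cm) received postemergence sprays. Flooded paddy plants were grown to the 2-leaf stage. After 13 to 15 days in a greenhouse, injury was visually rated 0–100 against untreated controls.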

pigweed = test: Test C pre-/postemergence herbicide test; assay type: in vivo, Amaranthus retroflexus; details: for Plant response rating (0 = no effect, 100 = complete control), Pigweed / Plant response rating, Pigweed: preemergence
Outline: as §1

[3] = 125 g ai/ha, scale 0 (no effect) to 100 (complete control), visual, 12 to 14 days
[4] = Preemergence, 500 g ai/ha, scale 0 to 100, 0 no effect, 100 complete control
[5] = 500 g ai/ha; visual rating 0-100, 0 no effect, 100 complete control; preemergence
[6] = postemergence, 125 g ai/ha; visual rating, scale 0 (no effect) to 100 (complete control)
[7] = 500 g ai/ha, visual rating 0-100, 0 no effect, 100 complete control, preemergence
[8] = postemergence, 125 g ai/ha, visual rating, scale 0 (no effect) to 100 (complete control)
[9] = preemergence, 125 g ai/ha, 0 to 100 scale, 0 is no effect, 100 is complete control
[10] = 500 g ai/ha, scale 0 to 100 (0 no effect, 100 complete control), visual, 12 to 14 days

CCn1nc(C(C)(C)C)cc1C(=O)Nc1cc(C#N)ccc1F [Compound 140]
Plant response rating (0 = no effect, 100 = complete control), Lambsquarters (lambsquarters [1]; 62 g ai/ha): 75 | Plant response rating, Lambsquarters (lambsquarters [1]; [3]): 85 | Lambsquarters plant response rating (lambsquarters [1]; [4]): 100 | Plant response rating, Cocklebur (cocklebur; [5]): 80 | Cocklebur plant response rating (cocklebur; [6]): 0 | Cocklebur plant response rating (cocklebur; postemergence, 500 g ai/ha; visual rating, scale 0 (no effect) to 100 (complete control)): 20 | Plant response rating (0 = no effect, 100 = complete control), Cupgrass, Woolly (woolly cupgrass; 62 g ai/ha): 0 | Plant response rating, Cupgrass, Woolly (woolly cupgrass; [3]): 0 | Plant response rating, Cupgrass, Woolly (woolly cupgrass; 250 g ai/ha, scale 0 to 100 (0 no effect, 100 complete control), visual, 12 to 14 days): 0 | Cupgrass, Woolly plant response rating (woolly cupgrass; [4]): 45 | Plant response rating (0 = no effect, 100 = complete control), Surinam Grass (Surinam grass; 62 g ai/ha): 0 | Plant response rating, Surinam Grass (Surinam grass; [3]): 0 | Surinam Grass plant response rating (Surinam grass; [4]): 70 | Plant response rating (0 = no effect, 100 = complete control), Johnsongrass (johnsongrass; 62 g ai/ha): 0 | Plant response rating, Johnsongrass (johnsongrass; [3]): 45 | Johnsongrass plant response rating (johnsongrass; [4]): 75 | Plant response rating, Lambsquarters (lambsquarters [2]; [7]): 100 | Lambsquarters plant response rating (lambsquarters [2]; [8]): 20 | Lambsquarters plant response rating (lambsquarters [2]; postemergence, 500 g ai/ha, visual rating, scale 0 (no effect) to 100 (complete control)): 80 | Plant response rating, Lambsquarters (lambsquarters [2]; [9]): 0 | Plant response rating (0 = no effect, 100 = complete control), Pigweed (pigweed; 62 g ai/ha): 100 | Plant response rating, Pigweed (pigweed; [3]): 100 | Pigweed plant response rating (pigweed; [4]): 100

CCC(=NO)c1cccc(NC(=O)c2cc(C(C)(C)C)nn2C)c1 [Compound 118]
Plant response rating, Lambsquarters (lambsquarters [1]; 31 g ai/ha, scale 0 to 100): 50 | Plant response rating (0 = no effect, 100 = complete control), Lambsquarters (lambsquarters [1]; 62 g ai/ha): 50 | Plant response rating, Lambsquarters (lambsquarters [1]; [3]): 60 | Plant response rating, Cocklebur (cocklebur; [5]): 10 | Plant response rating, Cocklebur (cocklebur; Postemergence, 500 g ai/ha; visual rating after 13 to 15 days, scale 0 (no effect) to 100 (complete control)): 90 | Cocklebur plant response rating (cocklebur; [6]): 70 | Plant response rating, Cocklebur (cocklebur; preemergence, 125 g ai/ha; 0 to 100 scale, 0 is no effect, 100 is complete control): 0 | Plant response rating, Cupgrass, Woolly (woolly cupgrass; 31 g ai/ha, scale 0 to 100): 0 | Plant response rating (0 = no effect, 100 = complete control), Cupgrass, Woolly (woolly cupgrass; 62 g ai/ha): 0 | Plant response rating, Cupgrass, Woolly (woolly cupgrass; [3]): 0 | Plant response rating, Surinam Grass (Surinam grass; 31 g ai/ha, scale 0 to 100): 20 | Plant response rating, Surinam Grass (Surinam grass; [3]): 20 | Plant response rating, Johnsongrass (johnsongrass; 31 g ai/ha, scale 0 to 100): 30 | Plant response rating (0 = no effect, 100 = complete control), Johnsongrass (johnsongrass; 62 g ai/ha): 40 | Plant response rating, Johnsongrass (johnsongrass; [3]): 100 | Plant response rating, Lambsquarters (lambsquarters [2]; [7]): 0 | Plant response rating, Lambsquarters (lambsquarters [2]; Postemergence, 500 g ai/ha, visual rating after 13 to 15 days, scale 0 (no effect) to 100 (complete control)): 20 | Lambsquarters plant response rating (lambsquarters [2]; [8]): 0 | Plant response rating, Lambsquarters (lambsquarters [2]; [9]): 0 | Plant response rating, Pigweed (pigweed; 31 g ai/ha, scale 0 to 100): 20 | Plant response rating (0 = no effect, 100 = complete control), Pigweed (pigweed; 62 g ai/ha): 70 | Plant response rating, Pigweed (pigweed; [3]): 90

CCNC(=O)c1cccc(NC(=O)c2nn(C(C)(C)CC)nc2CC)c1 [Compound 376]
Plant response rating, Lambsquarters (lambsquarters [1]; 62 g ai/ha, scale 0 to 100): 100 | Plant response rating (0 = no effect, 100 = complete control), Lambsquarters (lambsquarters [1]; 125 g ai/ha): 100 | Plant response rating, Lambsquarters (lambsquarters [1]; 250 g ai/ha, scale 0-100): 100 | Plant response rating, Lambsquarters (lambsquarters [1]; [10]): 100 | Plant response rating (0 to 100 scale), Cocklebur (cocklebur; 125 g ai/ha; 0 is no effect, 100 is complete control; preemergence): 0 | Cocklebur plant response rating (cocklebur; 125 g ai/ha; visual rating, scale 0 (no effect) to 100 (complete control); postemergence): 20 | Cocklebur plant response rating (cocklebur; postemergence, 500 g ai/ha; scale 0 to 100, 0 is no effect, 100 is complete control): 30 | Plant response rating, Cupgrass, Woolly (woolly cupgrass; 62 g ai/ha, scale 0 to 100): 5 | Plant response rating (0 = no effect, 100 = complete control), Cupgrass, Woolly (woolly cupgrass; 125 g ai/ha): 30 | Plant response rating, Cupgrass, Woolly (woolly cupgrass; 250 g ai/ha, scale 0-100): 75 | Plant response rating, Cupgrass, Woolly (woolly cupgrass; [10]): 85 | Plant response rating, Surinam Grass (Surinam grass; 62 g ai/ha, scale 0 to 100): 40 | Plant response rating (0 = no effect, 100 = complete control), Surinam Grass (Surinam grass; 125 g ai/ha): 60 | Plant response rating, Surinam Grass (Surinam grass; 250 g ai/ha, scale 0-100): 90 | Plant response rating, Surinam Grass (Surinam grass; [10]): 100 | Plant response rating, Johnsongrass (johnsongrass; 62 g ai/ha, scale 0 to 100): 60 | Plant response rating (0 = no effect, 100 = complete control), Johnsongrass (johnsongrass; 125 g ai/ha): 80 | Plant response rating, Johnsongrass (johnsongrass; 250 g ai/ha, scale 0-100): 100 | Plant response rating, Johnsongrass (johnsongrass; [10]): 100 | Plant response rating (0 to 100 scale), Lambsquarters (lambsquarters [2]; 125 g ai/ha, 0 is no effect, 100 is complete control, preemergence): 100 | Lambsquarters plant response rating (lambsquarters [2]; 125 g ai/ha, visual rating, scale 0 (no effect) to 100 (complete control), postemergence): 70 | Lambsquarters plant response rating (lambsquarters [2]; Postemergence, 500 g ai/ha, scale 0 (no effect) to 100 (complete control)): 90 | Plant response rating, Pigweed (pigweed; 62 g ai/ha, scale 0 to 100): 100 | Plant response rating (0 = no effect, 100 = complete control), Pigweed (pigweed; 125 g ai/ha): 100 | Plant response rating, Pigweed (pigweed; 250 g ai/ha, scale 0-100): 100 | Plant response rating, Pigweed (pigweed; [10]): 100

Reference: patent publication US20060069132A1, “Azolecarboxamide herbicides” (priority 2004, published 2006)
